Measurements published in ChEMBL document CHEMBL1154257, “Prediction of telomerase inhibitory activity for acridinic derivatives based on chemical structure” (Eur J Med Chem, 2009).

Target: Telomerase reverse transcriptase (Homo sapiens, UniProt O14746)
Test: Inhibition of telomerase in human A2780 cells by TRAP assay
Format: cell-based

Chain of Telomerase reverse transcriptase (O14746 whole entry): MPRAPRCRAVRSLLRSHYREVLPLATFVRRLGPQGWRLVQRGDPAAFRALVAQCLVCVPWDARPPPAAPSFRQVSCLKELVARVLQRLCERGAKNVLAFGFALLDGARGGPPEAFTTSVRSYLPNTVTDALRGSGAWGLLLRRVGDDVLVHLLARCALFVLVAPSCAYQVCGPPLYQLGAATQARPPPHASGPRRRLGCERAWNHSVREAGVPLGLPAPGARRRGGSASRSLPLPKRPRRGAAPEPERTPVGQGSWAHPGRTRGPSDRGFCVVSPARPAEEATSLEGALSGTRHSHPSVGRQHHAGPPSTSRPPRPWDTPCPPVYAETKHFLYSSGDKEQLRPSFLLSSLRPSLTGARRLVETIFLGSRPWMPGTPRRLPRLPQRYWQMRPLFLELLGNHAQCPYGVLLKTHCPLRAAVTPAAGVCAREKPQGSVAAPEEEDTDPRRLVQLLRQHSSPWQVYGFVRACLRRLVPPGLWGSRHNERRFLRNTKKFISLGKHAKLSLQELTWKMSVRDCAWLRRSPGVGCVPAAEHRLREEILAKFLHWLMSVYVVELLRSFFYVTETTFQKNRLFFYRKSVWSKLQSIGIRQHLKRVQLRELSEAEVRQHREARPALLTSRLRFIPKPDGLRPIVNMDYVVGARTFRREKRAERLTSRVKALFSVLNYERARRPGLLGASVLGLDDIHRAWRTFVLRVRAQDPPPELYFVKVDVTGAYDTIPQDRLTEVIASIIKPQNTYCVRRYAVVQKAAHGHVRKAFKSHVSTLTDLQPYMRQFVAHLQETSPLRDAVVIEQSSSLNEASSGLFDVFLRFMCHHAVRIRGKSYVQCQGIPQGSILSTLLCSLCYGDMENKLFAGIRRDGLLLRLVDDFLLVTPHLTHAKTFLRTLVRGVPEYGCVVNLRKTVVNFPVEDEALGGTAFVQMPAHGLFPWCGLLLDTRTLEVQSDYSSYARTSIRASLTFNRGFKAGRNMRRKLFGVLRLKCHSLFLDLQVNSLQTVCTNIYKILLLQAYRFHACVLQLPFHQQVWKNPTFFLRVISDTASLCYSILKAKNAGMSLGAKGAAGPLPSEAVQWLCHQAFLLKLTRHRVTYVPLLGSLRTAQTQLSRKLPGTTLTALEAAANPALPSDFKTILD

Row | SMILES | IC50 [nM]
1 | O=C(CCN1CCCC1)Nc1ccc2nc3ccc(NC(=O)CCN4CCCC4)cc3c(Nc3ccccc3O)c2c1 | 1030
2 | O=C(CC[N+]1([O-])CCCCC1)Nc1ccc2c(=O)c3ccc(NC(=O)CC[N+]4([O-])CCCCC4)cc3[nH]c2c1 | 49000
3 | O=C(CCN1CCCC1)Nc1ccc2nc3ccc(NC(=O)CCN4CCCC4)cc3c(O)c2c1 | 5800
4 | O=C(CCN1CCCC1)Nc1ccc2nc3ccc(NC(=O)CCN4CCCC4)cc3c(Nc3ccccc3)c2c1 | 1290
5 | CC1CCN(CCC(=O)Nc2ccc3c(=O)c4ccc(NC(=O)CCN5CCC(C)CC5)cc4[nH]c3c2)CC1 | 1700
6 | O=C(CCN1CCCC1)Nc1ccc2c(NC3CCCCC3)c3cc(NC(=O)CCN4CCCC4)ccc3nc2c1 | 210
7 | CCN(CC)CCNC(=O)CCCCC(=O)Nc1ccc(Nc2c3ccc(NC(=O)CCN4CCCC4)cc3nc3cc(NC(=O)CCN4CCCC4)ccc23)cc1 | 98
8 | Nc1cccc(Nc2c3ccc(NC(=O)CCN4CCCC4)cc3nc3ccc(NC(=O)CCN4CCCC4)cc23)c1 | 210
9 | O=C(CCN1CCCCC1CCO)Nc1ccc2c(=O)c3cc(NC(=O)CCN4CCCCC4CCO)ccc3[nH]c2c1 (stereo unspecified) | 200
10 | COc1ccc(Nc2c3cc(NC(=O)CCN4CCCC4)ccc3nc3ccc(NC(=O)CCN4CCCC4)cc23)cc1 | 460
11 | CCN(CC)CCC(=O)Nc1ccc2c(=O)c3ccc(NC(=O)CCN(CC)CC)cc3[nH]c2c1 | 2700
12 | O=C(CCCCC(=O)N1CCCC1)Nc1ccc(Nc2c3ccc(NC(=O)CCN4CCCC4)cc3nc3cc(NC(=O)CCN4CCCC4)ccc23)cc1 | 318
13 | CN(C)CCNc1c2cc(NC(=O)CCN3CCCC3)ccc2nc2ccc(NC(=O)CCN3CCCC3)cc12 | 570
14 | Nc1ccc(Nc2c3ccc(NC(=O)CCN4CCCC4)cc3nc3cc(NC(=O)CCN4CCCC4)ccc23)cc1 | 74
15 | O=C(CCN1CCCCC1)Nc1ccc2c(O)c3cc(NC(=O)CCN4CCCCC4)ccc3nc2c1 | 400
16 | COc1cccc(Nc2c3cc(NC(=O)CCN4CCCC4)ccc3nc3ccc(NC(=O)CCN4CCCC4)cc23)c1 | 2730
17 | O=C(CCN1CCCC1)Nc1ccc2c(Nc3ccccc3)c3cc(NC(=O)CCN4CCCC4)ccc3nc2c1 | 1330
18 | CC1(C)CC2CN(CCC(=O)Nc3ccc4cc5ccc(NC(=O)CCN6CC7CC(C)(C)CC(C)(C7)C6)cc5nc4c3)CC(C)(C2)C1 | > 50000
19 | C[N+]1(CCC(=O)Nc2ccc3nc4ccc(NC(=O)CC[N+]5(C)CCNCC5)cc4c(O)c3c2)CCNCC1 | 1900
20 | CC1CCN(CCC(=O)Nc2ccc3c(O)c4cc(NC(=O)CCN5CCC(C)CC5)ccc4nc3c2)CC1 | 200
21 | CN(C)c1ccc(Nc2c3cc(NC(=O)CCN4CCCC4)ccc3nc3ccc(NC(=O)CCN4CCCC4)cc23)cc1 | 500

Row | SMILES | IC50 [nM]
22 | CC1CCCCN1CCC(=O)Nc1ccc2nc3ccc(NC(=O)CCN4CCCCC4C)cc3c(O)c2c1 (stereo unspecified) | 1500
23 | CN(C)CCCNc1c2ccc(NC(=O)CCN3CCCC3)cc2nc2ccc(NC(=O)CCN3CCCC3)cc12 | 80
24 | CN(C)c1ccc(Nc2c3ccc(NC(=O)CCN4CCCC4)cc3nc3ccc(NC(=O)CCN4CCCC4)cc23)cc1 | 170
25 | CC1CCCCN1CCC(=O)Nc1ccc2c(=O)c3ccc(NC(=O)CCN4CCCCC4C)cc3[nH]c2c1 (stereo unspecified) | 2300
26 | O=C(CCN1CCCCC1)Nc1ccc2nc3ccc(NC(=O)CCN4CCCCC4)cc3c(O)c2c1 | 1900
27 | CCN(CC)CCC(=O)Nc1ccc2c(O)c3cc(NC(=O)CCN(CC)CC)ccc3nc2c1 | 700
28 | CCC1CCCCN1CCC(=O)Nc1ccc2c(=O)c3ccc(NC(=O)CCN4CCCCC4CC)cc3[nH]c2c1 (stereo unspecified) | 2300
29 | CCN(CC)CCCCCCNC(=O)CCCCC(=O)Nc1ccc(Nc2c3ccc(NC(=O)CCN4CCCC4)cc3nc3cc(NC(=O)CCN4CCCC4)ccc23)cc1 | 80
30 | CN(C)CCNc1c2ccc(NC(=O)CCN3CCCC3)cc2nc2ccc(NC(=O)CCN3CCCC3)cc12 | 270
31 | Nc1cccc(Nc2c3cc(NC(=O)CCN4CCCC4)ccc3nc3ccc(NC(=O)CCN4CCCC4)cc23)c1 | 1090
32 | O=C(CCN1CCC(O)CC1)Nc1ccc2c(O)c3ccc(NC(=O)CCN4CCC(O)CC4)cc3nc2c1 | 1700
33 | O=C(CCN1CCC(O)CC1)Nc1ccc2c(O)c3cc(NC(=O)CCN4CCC(O)CC4)ccc3nc2c1 | 200
34 | O=C(CCN1CCCC1)Nc1ccc2c(=O)c3ccc(NC(=O)CCN4CCCC4)cc3[nH]c2c1 | 8100
35 | Nc1ccccc1Nc1c2ccc(NC(=O)CCN3CCCC3)cc2nc2ccc(NC(=O)CCN3CCCC3)cc12 | 110
36 | Nc1ccccc1Nc1c2cc(NC(=O)CCN3CCCC3)ccc2nc2ccc(NC(=O)CCN3CCCC3)cc12 | 170
37 | O=C(CCN1CCC(O)CC1)Nc1ccc2nc3ccc(NC(=O)CCN4CCC(O)CC4)cc3c(O)c2c1 | 2300
38 | CN(C)c1cccc(Nc2c3cc(NC(=O)CCN4CCCC4)ccc3nc3ccc(NC(=O)CCN4CCCC4)cc23)c1 | 600
39 | CN(C)CCC(=O)Nc1ccc2nc3ccc(NC(=O)CCN(C)C)cc3c(O)c2c1 | 600
40 | CN(C)c1ccc(Nc2c3ccc(NC(=O)CCN4CCCC4)cc3nc3cc(NC(=O)CCN4CCCC4)ccc23)cc1 | 100
41 | Nc1ccc(Nc2c3cc(NC(=O)CCN4CCCC4)ccc3nc3ccc(NC(=O)CCN4CCCC4)cc23)cc1 | 200
